Source: publication PMC12888861, “Antibacterial activity of enmetazobactam against Acinetobacter spp.: a molecular dissection of mechanism of action and resistance determinants” (Antimicrobial Agents and Chemotherapy, 2025)
Values after ≈ are worked out from the molar mass of the structure shown.

Legend:
[1] = tested on: carbapenem-susceptible A. baumannii isolates (n = 54); experiment: MIC, broth microdilution (EUCAST), carbapenem-susceptible A. baumannii isolates; format: cell-based, Acinetobacter baumannii
How it was run: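 Broth microdilution per EUCAST v.15 guidelines on clinical Acinetobacter isolates from a Spanish 2020 multicenter collection; enmetazobactam also tested alone. A. baumannii ATCC 19606 served as reference strain, in duplicate assays.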

PBP1b = PBP1b (Acinetobacter baumannii, UniProt A0ABX6CHI7); experiment: PBP-binding assay, Bocillin FL competition, membrane preparations; settings: A. baumannii ATCC 19606, read-out: IC50 (binding affinity) PBP1b (converted)
Method: (§1) The possible involvement of A. baumannii PBPs as enmetazobactam targets was evaluated. […] The PBP-binding IC50 was determined in membrane preparations from three independent experiments, following previously described protocols ([13]).
(§2) Briefly, A. baumannii cultures were grown in Mueller-Hinton broth at 37°C with shaking at 180 rpm, and 400 mL were collected in late log phase (OD₆₀₀nm= 1), washed, and resuspended in 20 mM KH₂PO₄ and 140 mM NaCl (pH 7.5). After sonication, bacterial membranes were isolated by ultracentrifugation (150,000 g, 30 min). […] The Bocillin FL signal is inversely proportional to the binding capacity of the compounds tested to PBPs ([35]). The PBPs were separated by SDS-PAGE (Bio-Rad) and visualized with Odyssey M Imager (LI-COR). The IC₅₀ values were calculated using Empiria Studio software (LI-COR). The binding affinity was determined by comparing the change of the fluorescence in the presence or absence of the tested sulfones.

PBP2 = target: T1, PBP2 (Acinetobacter baumannii, UniProt D0C8Z9); experiment: as above; settings: IC50 (binding affinity) PBP2, membrane preparations, A. baumannii ATCC 19606
T1 construct: endogenous in cells; host or cells: A. baumannii ATCC 19606 membrane fraction
Method: as §1, §2

PBP3 = PBP3 (Acinetobacter baumannii, UniProt A0ABX6CK25); experiment: as above; settings: A. baumannii ATCC 19606, read-out: IC50 (binding affinity) PBP3 (converted)
Method: as §1, §2

OXA-23 = target: T2, OXA-23 (Acinetobacter baumannii, UniProt Q9L4P2); experiment: OXA-23 inhibition assay (nitrocefin hydrolysis IC50); format: biochemical
T2 construct: GST (N); made in house; host or cells: Escherichia coli BL21
Method: The Michaelis-Menten constant (Km) was determined by fitting the data to the Michaelis-Menten equation, following established protocols ([38]). The kcat (hydrolysis rate constant of the β-lactamase) was obtained by linearization of the kinetic data ([39]). To assess the possible inhibitory capacity of enmetazobactam against the CHDLs of A. baumannii, specific OXA-23 inhibition kinetics assays were performed in a Nanoquant Infinite spectrophotometer (Tecan). […] Also, the dissociation constant (koff), which represents the rate at which the enzyme-inhibitor complex dissociates (i.e., the proportion of the enzyme-inhibitor complex that dissociates per unit of time), was determined through a jump-dilution assay that monitored OXA-23 activity recovery as the enzyme-inhibitor complex dissociated. OXA-23 (1 µM) was preincubated for 30 min at 37°C with excess of inhibitors (50× IC₅₀) to ensure full acyl-enzyme complex formation. Subsequently, the mixture was diluted 1:5,000 to allow gradual complex dissociation. […] Enzymatic activity, reflecting the progressive dissociation of the acyl-enzyme complex, was monitored spectrophotometrically at 490 nm for 8 h. The resulting progress curves were fitted using GraphPad Prism (GraphPad Software, MA, USA) to equation 1 to estimate koff, where V0 is the initial, inhibited enzyme velocity; Vs is the steady-state uninhibited enzyme velocity, and t is time.

[2] = Acinetobacter baumannii, carbapenem-susceptible A. baumannii isolates (n = 54), ETZ fixed 8 mg/L in combinations

T1 sequence (D0C8Z9 whole entry): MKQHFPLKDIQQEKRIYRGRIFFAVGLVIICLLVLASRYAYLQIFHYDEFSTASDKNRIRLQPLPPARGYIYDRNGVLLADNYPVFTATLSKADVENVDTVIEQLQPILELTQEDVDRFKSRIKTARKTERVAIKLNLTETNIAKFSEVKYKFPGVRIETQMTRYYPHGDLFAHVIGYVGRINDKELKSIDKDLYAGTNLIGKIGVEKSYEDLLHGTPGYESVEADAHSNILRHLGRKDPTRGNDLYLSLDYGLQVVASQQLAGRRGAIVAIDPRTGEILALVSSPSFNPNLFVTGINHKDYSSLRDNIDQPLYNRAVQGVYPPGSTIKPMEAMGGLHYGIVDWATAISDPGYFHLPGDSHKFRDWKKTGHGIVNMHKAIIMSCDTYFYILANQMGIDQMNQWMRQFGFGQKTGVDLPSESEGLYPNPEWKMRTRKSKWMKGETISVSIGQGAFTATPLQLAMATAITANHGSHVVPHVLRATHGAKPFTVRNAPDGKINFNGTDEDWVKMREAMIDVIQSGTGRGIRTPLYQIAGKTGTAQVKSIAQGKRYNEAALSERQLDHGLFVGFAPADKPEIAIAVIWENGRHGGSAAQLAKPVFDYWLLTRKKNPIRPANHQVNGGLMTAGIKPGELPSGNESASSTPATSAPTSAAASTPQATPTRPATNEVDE
T2 sequence (Q9L4P2 18-273): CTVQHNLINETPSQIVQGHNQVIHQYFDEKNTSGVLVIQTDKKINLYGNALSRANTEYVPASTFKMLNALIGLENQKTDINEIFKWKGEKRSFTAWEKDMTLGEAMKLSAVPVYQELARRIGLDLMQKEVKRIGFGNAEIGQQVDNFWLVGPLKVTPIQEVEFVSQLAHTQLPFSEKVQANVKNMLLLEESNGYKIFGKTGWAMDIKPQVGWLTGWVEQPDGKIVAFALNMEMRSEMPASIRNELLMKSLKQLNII
Sequence of PBP3 (A0ABX6CK25 entry or part of it): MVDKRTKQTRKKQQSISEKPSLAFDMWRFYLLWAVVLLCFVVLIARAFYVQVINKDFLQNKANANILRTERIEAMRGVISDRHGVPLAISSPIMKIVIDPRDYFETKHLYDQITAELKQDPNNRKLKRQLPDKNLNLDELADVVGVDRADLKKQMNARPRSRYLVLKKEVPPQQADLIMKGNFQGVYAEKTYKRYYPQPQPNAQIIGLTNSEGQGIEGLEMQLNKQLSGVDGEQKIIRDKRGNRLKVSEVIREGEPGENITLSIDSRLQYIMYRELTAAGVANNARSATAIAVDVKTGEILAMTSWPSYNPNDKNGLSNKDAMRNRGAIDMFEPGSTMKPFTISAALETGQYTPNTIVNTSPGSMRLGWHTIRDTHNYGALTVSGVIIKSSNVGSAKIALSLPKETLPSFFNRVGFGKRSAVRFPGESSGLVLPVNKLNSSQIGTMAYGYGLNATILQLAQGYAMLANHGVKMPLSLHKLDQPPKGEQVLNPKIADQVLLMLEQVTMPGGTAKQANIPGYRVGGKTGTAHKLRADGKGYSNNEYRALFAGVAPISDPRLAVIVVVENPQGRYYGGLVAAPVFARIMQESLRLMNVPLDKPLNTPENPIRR

CC1(C)[C@H](C(=O)O)N2C(=O)C[C@H]2S1(=O)=O [sulbactam]
MIC distribution 0.12 [1]: 0 | MIC distribution 0.25 [1]: 0 | MIC distribution 0.5 [1]: 27.8 | MIC distribution 1 [1]: 79.6 | MIC distribution 2 [1]: 96.3 | MIC distribution 4 [1]: 100 | MIC distribution 8 [1]: 100 | MIC distribution 16 [1]: 100 | MIC distribution ≤0.06 [1]: 0 | MIC distribution ≥32 [1]: 100 | MIC ([1]; Acinetobacter baumannii, MBC set, isolate Ab1, A. baumannii ST 164, ADC-6, OXA-91, non-CHDLs-producing): 0.5 µg/mL (≈ 2.14 µM) | MIC ([1]; Acinetobacter baumannii, MBC set, isolate Ab11, A. baumannii ST 239, ADC-2, OXA-51, non-CHDLs-producing): 1 µg/mL (≈ 4.29 µM) | MIC ([1]; Acinetobacter baumannii, MBC set, isolate Ab34, A. baumannii ST 2182, ADC-2, OXA-130, non-CHDLs-producing): 0.5 µg/mL (≈ 2.14 µM) | MIC ([1]; Acinetobacter baumannii, isolate Ab1, ST 164, ADC-6, OXA-91, in combinations ETZ fixed at 8 mg/L): 1 µg/mL | MIC ([1]; Acinetobacter baumannii, isolate Ab11, ST 239, ADC-2, OXA-51, in combinations ETZ fixed at 8 mg/L): 1 µg/mL | MIC ([1]; Acinetobacter baumannii, isolate Ab34, ST 2182, ADC-2, OXA-130, in combinations ETZ fixed at 8 mg/L): 0.5 µg/mL | MIC ([1]; Acinetobacter baumannii, isolate Ab38, ST 866, ADC-2, OXA-385, in combinations ETZ fixed at 8 mg/L): 1 µg/mL | MIC ([1]; Acinetobacter baumannii, isolate Ab40, ST 2176, ADC-2, OXA-64, in combinations ETZ fixed at 8 mg/L): 1 µg/mL | MIC ([1]; Acinetobacter baumannii, isolate Ab50, ST 2176, ADC-2, OXA-64, in combinations ETZ fixed at 8 mg/L): 1 µg/mL | MIC ([1]; Acinetobacter baumannii, isolate Ab57, ST 1470, ADC-58, OXA-106, in combinations ETZ fixed at 8 mg/L): 1 µg/mL | MIC ([1]; Acinetobacter baumannii, isolate Ab58, ST 6, ADC-2, OXA-94, in combinations ETZ fixed at 8 mg/L): 2 µg/mL | MIC ([1]; Acinetobacter baumannii, isolate Ab61, ST 1639, ADC-7, OXA-64, in combinations ETZ fixed at 8 mg/L): 2 µg/mL | MIC ([1]; Acinetobacter baumannii, isolate Ab62, ST 265, ADC-2, OXA-91, in combinations ETZ fixed at 8 mg/L): 1 µg/mL | MIC ([1]; Acinetobacter baumannii, isolate Ab67, ST 1, ADC-11, OXA-69, in combinations ETZ fixed at 8 mg/L): 1 µg/mL | MIC ([1]; Acinetobacter baumannii, isolate Ab79, ST 106, ADC-11, OXA-78, in combinations ETZ fixed at 8 mg/L): 1 µg/mL | MIC ([1]; Acinetobacter baumannii, isolate Ab80, ST 2182, ADC-6, OXA-208, in combinations ETZ fixed at 8 mg/L): 4 µg/mL | MIC ([1]; Acinetobacter baumannii, isolate Ab81, ST 25, ADC-79, OXA-64, in combinations ETZ fixed at 8 mg/L): 2 µg/mL | MIC ([1]; Acinetobacter baumannii, isolate Ab93, ST 25, ADC-79, OXA-64, in combinations ETZ fixed at 8 mg/L): 1 µg/mL | MIC ([1]; Acinetobacter baumannii, isolate Ab95, ST 582, ADC-5, OXA-317, in combinations ETZ fixed at 8 mg/L): 1 µg/mL | MIC ([1]; Acinetobacter baumannii, isolate Ab96, ST 582, ADC-5, OXA-317, in combinations ETZ fixed at 8 mg/L): 1 µg/mL | MIC ([1]; Acinetobacter baumannii, isolate Ab100, ST 145, ADC-58, OXA-343, in combinations ETZ fixed at 8 mg/L): 1 µg/mL | MIC ([1]; Acinetobacter baumannii, isolate Ab110, ST 1623, ADC-3, OXA-70, in combinations ETZ fixed at 8 mg/L): 1 µg/mL | MIC ([1]; Acinetobacter baumannii, isolate Ab112, ST 193, ADC-like, OXA-120, in combinations ETZ fixed at 8 mg/L): 0.5 µg/mL | MIC ([1]; Acinetobacter baumannii, isolate Ab124, ST 2176, ADC-2, OXA-64, in combinations ETZ fixed at 8 mg/L): 1 µg/mL | MIC ([1]; Acinetobacter baumannii, isolate Ab127, ST 2176, ADC-2, OXA-64, in combinations ETZ fixed at 8 mg/L): 2 µg/mL | MIC ([1]; Acinetobacter baumannii, isolate Ab128, ST 2176, ADC-2, OXA-64, in combinations ETZ fixed at 8 mg/L): 1 µg/mL | MIC ([1]; Acinetobacter baumannii, isolate Ab130, ST 32, ADC-79, OXA-100, in combinations ETZ fixed at 8 mg/L): 2 µg/mL | MIC ([1]; Acinetobacter baumannii, isolate Ab131, ST 687, ADC-like, OXA-208, in combinations ETZ fixed at 8 mg/L): 1 µg/mL | MIC ([1]; Acinetobacter baumannii, isolate Ab132, ST 1112, ADC-79, OXA-89, in combinations ETZ fixed at 8 mg/L): 2 µg/mL | MIC ([1]; Acinetobacter baumannii, isolate Ab136, ST 2183, ADC-like, OXA-66, in combinations ETZ fixed at 8 mg/L): 1 µg/mL | MIC ([1]; Acinetobacter baumannii, isolate Ab139, ST 54, ADC-like, OXA-365, in combinations ETZ fixed at 8 mg/L): 1 µg/mL | MIC ([1]; Acinetobacter baumannii, isolate Ab142, ST 1, ADC-like, OXA-69, in combinations ETZ fixed at 8 mg/L): 4 µg/mL | MIC ([1]; Acinetobacter baumannii, isolate Ab143, ST 1328, ADC-76, OXA-408, in combinations ETZ fixed at 8 mg/L): 2 µg/mL | MIC ([1]; Acinetobacter baumannii, isolate Ab149, ST 1112, ADC-6, OXA-407, in combinations ETZ fixed at 8 mg/L): 1 µg/mL | MIC ([1]; Acinetobacter baumannii, isolate Ab150, ST 2184, ADC-like, OXA-64, in combinations ETZ fixed at 8 mg/L): 2 µg/mL | MIC ([1]; Acinetobacter baumannii, isolate Ab152, ST 132, ADC-2, OXA-120, in combinations ETZ fixed at 8 mg/L): 1 µg/mL | MIC ([1]; Acinetobacter baumannii, isolate Ab158, ST 2034, ADC-2, OXA-217, in combinations ETZ fixed at 8 mg/L): 0.5 µg/mL | MIC ([1]; Acinetobacter baumannii, isolate Ab163, ST 132, ADC-2, OXA-120, in combinations ETZ fixed at 8 mg/L): 0.5 µg/mL | MIC ([1]; Acinetobacter baumannii, isolate Ab167, ST 1623, ADC-like, OXA-345, in combinations ETZ fixed at 8 mg/L): 0.5 µg/mL | MIC ([1]; Acinetobacter baumannii, isolate Ab168, ST 1470, ADC-75, OXA-402, in combinations ETZ fixed at 8 mg/L): 0.5 µg/mL | MIC ([1]; Acinetobacter baumannii, isolate Ab170, ST 2110, ADC-4, OXA-338, in combinations ETZ fixed at 8 mg/L): 1 µg/mL | MIC ([1]; Acinetobacter baumannii, isolate Ab172, ST 2185, ADC-5, OXA-217, in combinations ETZ fixed at 8 mg/L): 2 µg/mL | MIC ([1]; Acinetobacter baumannii, isolate Ab185, ST 2, ADC-26, OXA-66, in combinations ETZ fixed at 8 mg/L): 1 µg/mL | MIC ([1]; Acinetobacter baumannii, isolate Ab187, ST 105, ADC-2, OXA-430, in combinations ETZ fixed at 8 mg/L): 1 µg/mL | MIC ([1]; Acinetobacter baumannii, isolate Ab188, ST 203, ADC-6, OXA-217, PDC-1, in combinations ETZ fixed at 8 mg/L): 1 µg/mL | MIC ([1]; Acinetobacter baumannii, isolate Ab189, ST 1405, ADC-3, OXA-120, in combinations ETZ fixed at 8 mg/L): 0.5 µg/mL | MIC ([1]; Acinetobacter baumannii, isolate Ab190, ST 2186, ADC-6, OXA-413, in combinations ETZ fixed at 8 mg/L): 0.5 µg/mL | MIC ([1]; Acinetobacter baumannii, isolate Ab193, ST 164, ADC-6, OXA-91, in combinations ETZ fixed at 8 mg/L): 0.5 µg/mL | MIC ([1]; Acinetobacter baumannii, isolate Ab195, ST 1, ADC-11, OXA-69, in combinations ETZ fixed at 8 mg/L): 1 µg/mL | MIC ([1]; Acinetobacter baumannii, isolate Ab200, ST 1336, ADC-2, OXA-51, in combinations ETZ fixed at 8 mg/L): 0.5 µg/mL | MIC ([1]; Acinetobacter baumannii, isolate Ab202, ST 1, ADC-11, OXA-69, in combinations ETZ fixed at 8 mg/L): 1 µg/mL | MIC ([1]; Acinetobacter baumannii, isolate Ab203, ST 221, ADC-6, OXA-88, in combinations ETZ fixed at 8 mg/L): 0.5 µg/mL | MIC ([1]; Acinetobacter baumannii, isolate Ab206, ST 2187, ADC-58, OXA-69, in combinations ETZ fixed at 8 mg/L): 0.5 µg/mL | MIC ([1]; Acinetobacter baumannii, isolate Ab209, in combinations ETZ fixed at 8 mg/L): 0.5 µg/mL | MIC ([1]; Acinetobacter baumannii, isolate Ab213, in combinations ETZ fixed at 8 mg/L): 0.5 µg/mL | MIC ([1]; Acinetobacter baumannii, isolate Ab218, in combinations ETZ fixed at 8 mg/L): 1 µg/mL | MIC ([1]; Acinetobacter baumannii, isolate Ab220, in combinations ETZ fixed at 8 mg/L): 0.5 µg/mL | MIC50 [1, 2]: 1 µg/mL | MIC90 [1, 2]: 2 µg/mL | IC50 (PBP1b): 9.6 µM | IC50 (PBP2): > 274 µM | IC50 (PBP3): 9.73 µM | IC50 (OXA-23): 29.2 µM
